Assays:
Assay type in all cases: in vivo
[1] = test system: Anthonomus grandis; assay: B.2 field trial, insecticidal activity against Anthonomus grandis in cotton; settings: 75 g ai/ha, 50% WG
Protocol: Trials were carried out in a randomized complete block design, each comprising of 4 replicates, plot size of 30 m^2. Application was carried out with a pressurized knap sack sprayer. 200 liters of spray volume was applied per ha. 4 applications were carried out in 5 days interval. Flonicamid was applied as a 50% WG Efficacy was evaluated 2 days after 2nd application and 4 days after 4th application. 50 squares were counted per plot and the % reduction of damaged squares in comparison to untreated control was calculated after the ABBOTT formula.

[2] = test system: Plutella xylostella; assay: BP80 Plutella xylostella larvicide, feeding/residual contact activity, preventative; settings: L2 larvae on artificial diet, 5 days incubation
Protocol: (§1) BP80s (break points for 80% mortality) were obtained for Pyrifluquinazon and Flonicamid against the following pests: Heliothis virescens, Plutella xylostella, Tetranychus urticae and Cydia pomonella. The specific method used for each pest is outlined below. Heliothis virescens (Tobacco Budworm): ovo-larvicide, feeding/contact activity, curative Eggs (0-24 h old) are placed in a 24-well microtiter plate on artificial diet and treated with test solutions by pipetting. After an incubation period of 5 days, samples are checked for egg mortality and larval mortality. Selectable application rates: 500-0.05 ppm Plutella xylostella (Diamondback Moth): larvicide, feeding/residual contact activity, preventative 24-well microtiter plates with artificial diet are treated with test solutions by pipetting. After drying, the plates are infested with L2 larvae (10-15 per well). After an incubation period of 5 days, samples are checked for larval mortality. Selectable application rates: 500-0.05 ppm Tetranychus urticae (Two-Spotted Spider Mite): Mixed Population feeding/contact activity, preventative Bean leaf discs on agar in 24-well microtiter plates are sprayed with test solutions. After drying, the leaf discs are infested with mite populations of mixed ages. 8 days later, discs are checked for egg mortality, larval mortality, and adult mortality. […]

[3] = test system: Cydia pomonella; assay: BP80 Cydia pomonella larvicide, contact/feeding activity, preventative; settings: L1 larvae on diet cubes, 14 days after infestation
Protocol: as §1

[4] = test system: Heliothis virescens; assay: BP80 Heliothis virescens ovo-larvicide, feeding/contact activity, curative; settings: eggs on artificial diet, 5 days incubation
Protocol: as §1

[5] = test system: Anthonomus grandis; assay: B.3 field trial, insecticidal activity against Anthonomus grandis in cotton; settings: 75 g ai/ha, 50% WG
Protocol: (§2) Trials were carried out in a randomized complete block design, each comprising of 4 replicates and a plot size of 30 m^2. Application was carried out with a pressurized knap sack sprayer. 200 liters of spray volume was applied per ha. 3 applications were carried out in 5 days interval, the first application at BBCH 51. Flonicamid was applied as a 50% WG. Efficacy was evaluated 2 days after 2nd and 5 days after 3rd application. 50 squares were counted per plot and the percentage reduction of damaged squares in comparison to untreated control was calculated after the ABBOTT formula.

[6] = test system: Anthonomus grandis; assay: B.4 field trial, insecticidal activity against Anthonomus grandis in cotton
Protocol: as §2, with “4 replicates,” for “4 replicates and a”, “ha. 4” for “ha. 3”, “50% WG, and Pyrifluquinaon as a 10% WP.” for “50% WG.”, “after 4th” for “after 2nd”, “and 7” for “and 5”, “after 4th” for “after 3rd”

[7] = test system: Anthonomus adults; assay: B.5 immobility effect, contact spray on Anthonomus adults; settings: 300 ppm contact spray; for no of insects at infestation site (A) / no of insects capable of leaving the infestation site (B) + (C) / no of insects in test arena, not on diet (C) / no of insects on diet (B): 50 beetles
Protocol: In this test 50 freshly hatched beetles were treated with FLON (IF 050 formulation) and PYQU (VVG 50 formulation). Using a turntable spray, 300 ppm of a 200 g ai/ha formulation were sprayed directly on the beetles. The control beetles (“check”) were sprayed with water. The petri dish was then placed in the test arena next to which was placed a diet situated 23 cm above ground. After a certain time periods shown below in the table, the number of beetles on different sites was counted: […]

[8] = test system: Tetranychus urticae; assay: BP80 Tetranychus urticae mixed population, feeding/contact activity, preventative; settings: bean leaf discs, mixed ages, 8 days
Protocol: as §1

For N#CCNC(=O)c1cnccc1C(F)(F)F [Flonicamid, N-(cyanomethyl)-4-(trifluoromethyl)-3-pyridinecarboxamide], the “% reduction of damaged squares” value ([1]; 2 days after 2nd application) was 50%, the “% reduction of damaged squares” value ([1]; 4 days after 4th application) was 57% and the “BP80 (break point for 80% mortality)” value [2] was over 200 ppm. The “BP80 (break point for 80% mortality)” value [3] was over 50 ppm, the “BP80 (break point for 80% mortality)” value [4] was over 200 ppm and the “% reduction of damaged squares” value ([5]; 2 days after 2nd application) was 67%. For the same molecule, the “% reduction of damaged squares” value ([5]; 5 days after 3rd application) was 52%, the “% reduction of damaged squares” value ([6]; 75 g ai/ha, 2 days after 4th application) was 65% and the “% reduction of damaged squares” value ([6]; 75 g ai/ha, 7 days after 4th application) was 50%. The “% reduction of damaged squares” value ([6]; 150 g ai/ha, 2 days after 4th application) was 81%, the “% reduction of damaged squares” value ([6]; 150 g ai/ha, 7 days after 4th application) was 52% and the “immobility effect disappeared with time (rank order)” value [7] was “PYQU>FLON”. For the same molecule, the “no of insects at infestation site (A)” value ([7]; 3 hours) was 37, the “no of insects capable of leaving the infestation site (B) + (C)” value (“no of insects capable … (C)” for short) ([7]; 3 hours) was 13 and the “no of insects in test arena, not on diet (C)” value (shortened to “no … not on diet (C)”) ([7]; 3 hours) was 11. For the same molecule, the “no of insects on diet (B)” value ([7]; 3 hours) was 2, the “no of insects at infestation site (A)” value ([7]; 6 hours) was 44 and the “no of insects capable … (C)” value ([7]; 6 hours) was 6. For the same molecule, the “no … not on diet (C)” value ([7]; 6 hours) was 3, the “no of insects on diet (B)” value ([7]; 6 hours) was 3 and the “no of insects at infestation site (A)” value ([7]; 24 hours) was 37. The “no of insects capable … (C)” value ([7]; 24 hours) was 13, the “no … not on diet (C)” value ([7]; 24 hours) was 6 and the “no of insects on diet (B)” value ([7]; 24 hours) was 7. For the same molecule, the “no of insects at infestation site (A)” value ([7]; 32 hours) was 21, the “no of insects capable … (C)” value ([7]; 32 hours) was 29 and the “no … not on diet (C)” value ([7]; 32 hours) was 3. For the same molecule, the “no of insects on diet (B)” value ([7]; 32 hours) was 26, the “no of insects at infestation site (A)” value ([7]; 48 hours) was 14 and the “no of insects capable … (C)” value ([7]; 48 hours) was 36. The “no … not on diet (C)” value ([7]; 48 hours) was 6, the “no of insects on diet (B)” value ([7]; 48 hours) was 30 and the “no of insects at infestation site (A)” value ([7]; 52 hours) was 10. For the same molecule, the “no of insects capable … (C)” value ([7]; 52 hours) was 40, the “no … not on diet (C)” value ([7]; 52 hours) was 3 and the “no of insects on diet (B)” value ([7]; 52 hours) was 37. The “no of insects at infestation site (A)” value ([7]; 72 hours) was 9, the “no of insects capable … (C)” value ([7]; 72 hours) was 41 and the “no … not on diet (C)” value ([7]; 72 hours) was 7. For the same molecule, the “no of insects on diet (B)” value ([7]; 72 hours) was 34, the “no of insects at infestation site (A)” value ([7]; 78 hours) was 5 and the “no of insects capable … (C)” value ([7]; 78 hours) was 45. For the same molecule, the “no … not on diet (C)” value ([7]; 78 hours) was 6, the “no of insects on diet (B)” value ([7]; 78 hours) was 39 and the “no of insects at infestation site (A)” value ([7]; 144 hours) was 15. The “no of insects capable … (C)” value ([7]; 144 hours) was 35, the “no … not on diet (C)” value ([7]; 144 hours) was 3 and the “no of insects on diet (B)” value ([7]; 144 hours) was 32. For the same molecule, the “no of insects at infestation site (A)” value ([7]; 150 hours) was 5, the “no of insects capable … (C)” value ([7]; 150 hours) was 45 and the “no … not on diet (C)” value ([7]; 150 hours) was 1. For the same molecule, the “no of insects on diet (B)” value ([7]; 150 hours) was 44 and the “BP80 (break point for 80% mortality)” value [8] was over 200 ppm.

With CC(=O)N1C(=O)N(NCc2cccnc2)Cc2cc(C(F)(C(F)(F)F)C(F)(F)F)ccc21 [Pyrifluquinazon, 1-acetyl-3,4-dihydro-3-[(3-pyridinylmethyl)amino]-6-[1,2,2,2-tetrafluoro-1-(trifluoromethyl)ethyl]-2(1H)-quinazolinone] the “BP80 (break point for 80% mortality)” value [2] was over 200 ppm, the “BP80 (break point for 80% mortality)” value [4] was over 200 ppm and the “% reduction of damaged squares” value ([6]; 100 g ai/ha, 2 days after 4th application) was 77%. The “% reduction of damaged squares” value ([6]; 100 g ai/ha, 7 days after 4th application) was 37%, the “% reduction of damaged squares” value ([6]; 200 g ai/ha, 2 days after 4th application) was 85% and the “% reduction of damaged squares” value ([6]; 200 g ai/ha, 7 days after 4th application) was 48%. The “immobility effect disappeared with time (rank order)” value [7] was “PYQU>FLON”, the “no of insects at infestation site (A)” value ([7]; 3 hours) was 45 and the “no of insects capable … (C)” value ([7]; 3 hours) was 5. For the same molecule, the “no … not on diet (C)” value ([7]; 3 hours) was 1, the “no of insects on diet (B)” value ([7]; 3 hours) was 4 and the “no of insects at infestation site (A)” value ([7]; 6 hours) was 45. For the same molecule, the “no of insects capable … (C)” value ([7]; 6 hours) was 5, the “no … not on diet (C)” value ([7]; 6 hours) was 2 and the “no of insects on diet (B)” value ([7]; 6 hours) was 3. For the same molecule, the “no of insects at infestation site (A)” value ([7]; 24 hours) was 39, the “no of insects capable … (C)” value ([7]; 24 hours) was 11 and the “no … not on diet (C)” value ([7]; 24 hours) was 3. The “no of insects on diet (B)” value ([7]; 24 hours) was 8, the “no of insects at infestation site (A)” value ([7]; 32 hours) was 27 and the “no of insects capable … (C)” value ([7]; 32 hours) was 23. The “no … not on diet (C)” value ([7]; 32 hours) was 4, the “no of insects on diet (B)” value ([7]; 32 hours) was 19 and the “no of insects at infestation site (A)” value ([7]; 48 hours) was 28. The “no of insects capable … (C)” value ([7]; 48 hours) was 22, the “no … not on diet (C)” value ([7]; 48 hours) was 4 and the “no of insects on diet (B)” value ([7]; 48 hours) was 18. For the same molecule, the “no of insects at infestation site (A)” value ([7]; 52 hours) was 30, the “no of insects capable … (C)” value ([7]; 52 hours) was 20 and the “no … not on diet (C)” value ([7]; 52 hours) was 6. For the same molecule, the “no of insects on diet (B)” value ([7]; 52 hours) was 14, the “no of insects at infestation site (A)” value ([7]; 72 hours) was 30 and the “no of insects capable … (C)” value ([7]; 72 hours) was 20. The “no … not on diet (C)” value ([7]; 72 hours) was 6, the “no of insects on diet (B)” value ([7]; 72 hours) was 14 and the “no of insects at infestation site (A)” value ([7]; 78 hours) was 24. For the same molecule, the “no of insects capable … (C)” value ([7]; 78 hours) was 26, the “no … not on diet (C)” value ([7]; 78 hours) was 4 and the “no of insects on diet (B)” value ([7]; 78 hours) was 22. For the same molecule, the “no of insects at infestation site (A)” value ([7]; 144 hours) was 15, the “no of insects capable … (C)” value ([7]; 144 hours) was 35 and the “no … not on diet (C)” value ([7]; 144 hours) was 4. For the same molecule, the “no of insects on diet (B)” value ([7]; 144 hours) was 31, the “no of insects at infestation site (A)” value ([7]; 150 hours) was 15 and the “no of insects capable … (C)” value ([7]; 150 hours) was 35. The “no … not on diet (C)” value ([7]; 150 hours) was 2, the “no of insects on diet (B)” value ([7]; 150 hours) was 33 and the “BP80 (break point for 80% mortality)” value [8] was over 200 ppm.

Reference: patent US20140228381A1, “METHODS OF CONTROLLING INSECTS OF THE FAMILY CURCOLIONIDAE” (SYNGENTA PARTICIPATIONS AG, priority 2011, published 2014)
